The source of these data is PMC10360995, “Discovery of 3-((3-amino-1H-indazol-4-yl)ethynyl)-N-(4-((4-ethylpiperazin-1-yl)methyl)-3-(trifluoromethyl)phenyl)benzamide (AKE-72), a potent Pan-BCR-ABL inhibitor including the T315I gatekeeper resistant mutant” (Journal of Enzyme Inhibition and Medicinal Chemistry, 2023).

Where two headings read alike, the source gives them in different places.

A word on the IC50: it is the concentration that gives 50% inhibition.

One assay has as its system MOLT-4. The assay is described as follows: NCI SRB anti-leukemic assay. As to conditions: for GI50 / CC50: Homo sapiens; for GI50: MOLT-4, read-out: GI50 MOLT-4; for CC50: MOLT-4, read-out: LC50 (half-maximal lethal concentration) MOLT-4; for TGI (total growth inhibition) MOLT-4: five-dose assay.
The test system of a further assay is CCRF-CEM. The assay is described as follows: NCI SRB anti-leukemic assay. The note with it: for GI50 / CC50: Homo sapiens, CCRF-CEM; for GI50: read-out: GI50 CCRF-CEM; for CC50: read-out: LC50 (half-maximal lethal concentration) CCRF-CEM; for TGI (total growth inhibition) CCRF-CEM: five-dose assay; for GI % CCRF-CEM: single dose 10 µM.
In assay [1] the target is T1, BCR-ABL^WT (Homo sapiens, UniProt P00519). In words: BCR-ABL WT kinase inhibition assay. Format: biochemical. The note with it: for IC50: 10-dose duplicate, 3-fold serial dilution, 10 µM ATP.
The test system of another assay is RPMI-8226. The assay is described as follows: NCI SRB anti-leukemic assay. As to conditions: for GI50 / CC50: Homo sapiens; for GI50: RPMI-8226, read-out: GI50 RPMI-8226; for CC50: RPMI-8226, read-out: LC50 (half-maximal lethal concentration) RPMI-8226; for TGI (total growth inhibition) RPMI-8226: five-dose assay; for GI % RPMI-8226: single dose 10 µM.
The subject of assay [2] is HL-60(TB). As to conditions: for TGI (total growth inhibition) HL-60(TB): five-dose assay.
The test system of assay [3] is HL-60(TB). In words: cells. The note with it: Homo sapiens; for GI50: HL-60, read-out: GI50 HL-60(TB); for CC50: HL-60, read-out: LC50 (half-maximal lethal concentration) HL-60(TB).
A further assay has as its system SR. The assay is described as follows: NCI SRB anti-leukemic assay. The note with it: for GI50 / CC50: Homo sapiens, SR; for GI50: read-out: GI50 SR; for CC50: read-out: LC50 (half-maximal lethal concentration) SR; for TGI (total growth inhibition) SR: five-dose assay.
Assay [4] deals with K-562. In words: NCI SRB anti-leukemic assay. As to conditions: for GI50 / CC50: Homo sapiens; for GI50: K562, read-out: GI50 K-562; for CC50: K562, read-out: LC50 (half-maximal lethal concentration) K-562.
In assay [5] the test system is K-562. The arrangement: method as in PMID 32961435. As to conditions: cited from earlier work.
Assay [6] has as its target T1, BCR-ABL^WT. As to conditions: cited from earlier work.
The test system of the next assay is CML. The note with it: cited from earlier work.
In another assay the test system is Ba/F3 mouse pro-B cells. The assay is described as follows: Cellular proliferation assay. Format: cell-based. As to conditions: BaF3, read-out: GI50 Ba/F3 (mouse pro-B cell). An excerpt:
We also tested AKE-72 against BCR-ABL-positive and BCR-ABL-negative cell lines.
1.8. Cytochrome P450 Assay
The binding site was defined based

T1 sequence (P00519 whole entry): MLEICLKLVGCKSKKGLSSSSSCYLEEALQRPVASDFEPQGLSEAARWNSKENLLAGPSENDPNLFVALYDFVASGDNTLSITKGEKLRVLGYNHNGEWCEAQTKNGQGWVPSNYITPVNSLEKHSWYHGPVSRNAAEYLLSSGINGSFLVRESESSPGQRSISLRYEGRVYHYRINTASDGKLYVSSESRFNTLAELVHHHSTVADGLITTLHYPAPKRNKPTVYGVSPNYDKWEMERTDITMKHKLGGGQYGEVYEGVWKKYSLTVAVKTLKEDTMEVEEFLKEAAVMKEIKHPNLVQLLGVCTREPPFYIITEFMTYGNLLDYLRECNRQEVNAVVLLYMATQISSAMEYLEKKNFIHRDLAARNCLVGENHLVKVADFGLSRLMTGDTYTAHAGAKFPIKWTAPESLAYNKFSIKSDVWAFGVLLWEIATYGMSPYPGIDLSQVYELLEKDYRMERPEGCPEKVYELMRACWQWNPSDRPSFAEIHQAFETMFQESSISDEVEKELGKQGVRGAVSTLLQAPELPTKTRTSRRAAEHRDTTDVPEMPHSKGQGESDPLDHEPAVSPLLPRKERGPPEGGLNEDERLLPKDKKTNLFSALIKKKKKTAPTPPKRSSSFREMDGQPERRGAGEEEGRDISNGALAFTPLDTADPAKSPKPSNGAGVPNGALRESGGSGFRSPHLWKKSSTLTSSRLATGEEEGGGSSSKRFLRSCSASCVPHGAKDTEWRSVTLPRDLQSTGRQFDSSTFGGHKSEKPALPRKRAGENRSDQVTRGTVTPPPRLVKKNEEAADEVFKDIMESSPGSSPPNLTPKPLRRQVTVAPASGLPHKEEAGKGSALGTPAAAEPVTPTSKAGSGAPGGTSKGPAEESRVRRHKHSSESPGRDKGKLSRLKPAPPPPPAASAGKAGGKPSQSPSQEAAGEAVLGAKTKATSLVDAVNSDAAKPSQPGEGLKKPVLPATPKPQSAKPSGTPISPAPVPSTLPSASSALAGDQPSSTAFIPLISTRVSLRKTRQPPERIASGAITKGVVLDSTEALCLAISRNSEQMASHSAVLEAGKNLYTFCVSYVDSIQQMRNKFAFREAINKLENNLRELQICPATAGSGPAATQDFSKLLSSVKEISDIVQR

Take `CN1CCN(Cc2ccc(C(=O)Nc3cccc(C#Cc4cccc5[nH]nc(N)c45)c3)cc2C(F)(F)F)CC1` [Compound 4a]: in the assay with MOLT-4, the GI50 is 494 nM, the CC50 came to 7.57 µM and the “TGI (total growth inhibition) MOLT-4” value stood at 2.28 µM. Besides, in the assay on CCRF-CEM, the GI50 is 1220 nM, the CC50 came out at 8.3 µM, the “TGI (total growth inhibition) CCRF-CEM” value is 3.18 µM and the “GI % CCRF-CEM” value was “L (lethal effect (% GI > 100))”. Also, the half-inhibitory concentration (IC50) on BCR-ABL^WT [1] is below 0.51 nM. Moreover, the “fold superior potency against BCR-ABL^WT versus lead indazole II” value at BCR-ABL^WT [1] (relative to II) was above 300 folds. In the assay with RPMI-8226, the GI50 was found to be 1220 nM, the CC50 is 9.52 µM, the “TGI (total growth inhibition) RPMI-8226” value stood at 3.26 µM and the “GI % RPMI-8226” value is on record as “L (lethal effect (% GI > 100))”. Besides, the “TGI (total growth inhibition) HL-60(TB)” value in the assay with HL-60(TB) [2] is 1.6 µM. Also, in the assay with HL-60(TB) [3], the GI50 amounted to 278 nM and the CC50 came out at 7.33 µM. In addition, in the assay with SR, the GI50 came out at 1100 nM, the CC50 is above 100 µM and the “TGI (total growth inhibition) SR” value was found to be 3.35 µM. In the assay with K-562 [4], the GI50 is below 10 nM and the CC50 was found to be 6.03 µM. The “TGI (total growth inhibition) K-562” value with K-562 [4] (five-dose assay) was 1.02 µM.
On to `CCN1CCN(Cc2ccc(C(=O)Nc3cccc(C#Cc4cccc5[nH]nc(N)c45)c3)cc2C(F)(F)F)CC1` [Compound 4b], for which, in the assay on MOLT-4, the GI50 stood at 1420 nM and the “TGI (total growth inhibition) MOLT-4” value stood at 3.57 µM. Besides, in the assay with CCRF-CEM, the GI50 was found to be 1600 nM, the CC50 was found to be 8.16 µM, the “TGI (total growth inhibition) CCRF-CEM” value turned out to be 3.62 µM and the “GI % CCRF-CEM” value came to 96.4%. The molecule further came in with an IC50 against BCR-ABL^WT [1] of 0.64 ± 0.0099 nM. In the assay with RPMI-8226, the GI50 turned out to be 1590 nM, the CC50 was found to be 9.71 µM, the “TGI (total growth inhibition) RPMI-8226” value is 3.92 µM and the “GI % RPMI-8226” value was “L (lethal effect (% GI > 100))”. Besides, in the assay on HL-60(TB) [2], the “TGI (total growth inhibition) HL-60(TB)” value is 2.61 µM. Moreover, the GI50 in the assay with HL-60(TB) [3] came to 593 nM. For the same molecule, in the assay on SR, the GI50 is 1780 nM, the CC50 is above 100 µM and the “TGI (total growth inhibition) SR” value is recorded as 4.59 µM. Moreover, in the assay on K-562 [4], the GI50 was below 1000 nM. Also, in the assay with K-562 [4] (five-dose assay), the “TGI (total growth inhibition) K-562” value is 1.14 µM.
Consider `Nc1n[nH]c2cccc(C#Cc3cccc(NC(=O)c4ccc(N5CCOCC5)c(C(F)(F)F)c4)c3)c12` [I, reference compound], for which, in the assay on MOLT-4, the GI50 came to 1310 nM, the CC50 is above 100 µM and the “TGI (total growth inhibition) MOLT-4” value is 5.71 µM. Also, the “GI % MOLT-4” value in the assay on MOLT-4 (single dose 10 µM) is listed as 92.33%. Further, in the assay on CCRF-CEM, the GI50 is 1360 nM, the CC50 was above 100 µM, the “TGI (total growth inhibition) CCRF-CEM” value is reported as 6.58 µM and the “GI % CCRF-CEM” value was 9.49%. Besides, in the assay with RPMI-8226, the GI50 stood at 1980 nM, the CC50 is above 100 µM, the “TGI (total growth inhibition) RPMI-8226” value is 6.50 µM and the “GI % RPMI-8226” value was “L (lethal effect (% GI > 100))”. In addition, the “TGI (total growth inhibition) HL-60(TB)” value with HL-60(TB) [2] worked out at 10.5 µM. The “GI % HL-60(TB)” value in the assay with HL-60(TB) [2] (single dose 10 µM) came to 99.01%. In the assay on HL-60(TB) [3], the GI50 is 1400 nM and the CC50 is above 100 µM. The GI50 in the assay on K-562 [5] was below 10 nM. Besides, on BCR-ABL^WT [6], the IC50 is 4.6 ± 0.6 nM. For the same molecule, in the assay on SR, the GI50 came to 2400 nM, the CC50 was above 100 µM and the “TGI (total growth inhibition) SR” value was above 100 µM. For the same molecule, the “GI % SR” value in the assay on SR (single dose 10 µM) turned out to be 87.42%. In the assay on K-562 [4], the GI50 is below 10 nM and the CC50 is above 100 µM. In the assay with K-562 [4] (five-dose assay), the “TGI (total growth inhibition) K-562” value came to 13.5 µM and the “TGI K-562” value came out at 13.5 µM. The “GI % K-562” value in the assay with K-562 [4] (single dose 10 µM) is given as 97.96%.
Take `Cc1ccc(NC(=O)c2ccc(CN3CCN(C)CC3)cc2)cc1Nc1nccc(-c2cccnc2)n1` [Imatinib]: the long-term success rate in the assay on CML (CML, after 10 years) is recorded as 83.3%. Further, in the assay with CML (patients diagnosed with CML), the “overall 5-year survival rate” value is reported as 89%.
`Cc1ccc(C(=O)Nc2ccc(CN3CCN(C)CC3)c(C(F)(F)F)c2)cc1C#Cc1cnc2cccnn12` [Ponatinib, reference compound]: the GI50 with Ba/F3 mouse pro-B cells stood at 708 ± 37 nM.
